Where “and” joins values, the source holds several entries; their conditions need not be identical. Equal entries are not always repeated.
Tests used:
[1] = Adsorption onto Florisil and desorption into DMSO, quantified by RP-HPLC against a 10 mM control solution; assay type: physicochemical; conditions: for Conc. (mM) of Compound in DMSO after desorption from Florisil / Conc. (mM) of Z-Trp-NH2 in DMSO after desorption from Florisil: control 10.00; for Conc. (mM) of Z-Trp-NH2 in DMSO after desorption from Florisil: nominal conc. 10 mM
Description: 1. 16.9 mg (50 μmol) of Z-Trp-NH2 in DMSO (0.5-5 ml) added to carrier (100 mg, 225 mg and 475 mg).
3. Evaporate off DMSO using centrifugal evaporator (70°/1 hr).
4. Mix resulting solid with spatula to ensure distribution as even as possible.
5. Weigh duplicate samples (to contain nominal 10 μmol Z-Trp-NH2) into vials.
6. Add DMSO to achieve 10^−2M conc. (nominal).
7. Dilute for HPLC analysis and compare with 10^−2M control solution of Z-Trp-NH2 similarly diluted.
Z-Trp-NH2 (169 mg) was dissolved in DMSO (50 ml) to give a 10 mM solution. Aliquots of the solution (5 ml, 50 μmol) were added to a 100 mg and a 225 mg sample of Florisil™ in 2-dram glass vials. The samples were vortexed for approximately one minute and the DMSO removed in vacuo by evaporation at 70° for 1 h in a centrifugal evaporator (GeneVac Atlas HT4™). After evaporation the samples were removed and checked visually. In each case dry solids were obtained in the form of free flowing powders virtually indistinguishable from the original Florisil™. The nominal loadings of the adsorbed samples were calculated as 207 and 427 μmol/g of Z-Trp-NH2.
Duplicate amounts (11.7 and 24.2 mg respectively) of the 427 and 207 μmol/g Z-Trp-NH2/Florisil™ samples were weighed into glass vials. DMSO (0.5 ml) was added to each vial and the vials were agitated gently for 15 min to give a nominal concentration of 10 mM of Z-Trp-NH2. Aliquots from each vial were diluted 100-fold with CH3CN and analysed by RP-HPLC monitoring by UV at […]. The peak areas obtained for the desorbed Z-Trp-NH2 DMSO solutions were compared with those obtained using a 10 mM control soln of Z-Trp-NH2 in DMSO similarly diluted.
Using a procedure analogous to that used for Z-Trp-NH2 the following results were obtained (Table 4 and FIG. 3)

[2] = Stability of Fmoc-Arg in DMSO and when adsorbed onto Florisil (HPLC); assay type: physicochemical
[3] = ratio of compound to Florisil 200.0 μmol/g
[4] = ratio of compound to Florisil 200.1 μmol/g
[5] = ratio of compound to Florisil 397.5 μmol/g
[6] = ratio of compound to Florisil 400.6 μmol/g

Row | Compound | Conc. (mM) of Compound in DMSO after desorption from Florisil [1, 3] | Conc. (mM) of Compound in DMSO after desorption from Florisil [1, 4] | Conc. (mM) of Compound in DMSO after desorption from Florisil [1, 5] | Conc. (mM) of Compound in DMSO after desorption from Florisil [1, 6] | Conc. (mM) of Z-Trp-NH2 in DMSO after desorption from Florisil ([1]; ratio of Z-Trp-NH2 to Florisil 200 μmol/g) | Conc. (mM) of Z-Trp-NH2 in DMSO after desorption from Florisil ([1]; ratio of Z-Trp-NH2 to Florisil 400 μmol/g) | Overall adsorption/desorption result with Florisil ([1]; comparable to those obtained with Z-Trp-NH2) | Decomposition in DMSO ([2]; 10^-2 M in DMSO, after 24 hours at ambient temperature) | Stability when adsorbed onto Florisil ([2]; adsorbed onto Florisil, some decomposition during adsorption/desorption when DMSO is present) | Detection by HPLC after centrifugal evaporation and dissolution into DMSO ([2]; control experiment, no Florisil added)
1 | Boc-Pyridylalanine [Boc-Pal] | 9.75 mM | 14.20 mM | 11.06 mM | 10.63 mM |  |  |  |  |  | 
2 | NC(=O)[C@H](Cc1c[nH]c2ccccc12)NC(=O)OCc1ccccc1 [Z-Trp-NH2] |  |  |  |  | 9.21 mM and 9.79 mM | 10.26 mM and 10.09 mM |  |  |  | 
3 | Boc-Naphthylalanine [Boc-Nal] | 9.10 mM | 9.06 mM | 9.64 mM | 9.64 mM |  |  |  |  |  | 

Next, values leading:

Row | Conc. (mM) of Compound in DMSO after desorption from Florisil [1, 3] | Conc. (mM) of Compound in DMSO after desorption from Florisil [1, 4] | Conc. (mM) of Compound in DMSO after desorption from Florisil [1, 5] | Conc. (mM) of Compound in DMSO after desorption from Florisil [1, 6] | Conc. (mM) of Z-Trp-NH2 in DMSO after desorption from Florisil ([1]; ratio of Z-Trp-NH2 to Florisil 200 μmol/g) | Conc. (mM) of Z-Trp-NH2 in DMSO after desorption from Florisil ([1]; ratio of Z-Trp-NH2 to Florisil 400 μmol/g) | Overall adsorption/desorption result with Florisil ([1]; comparable to those obtained with Z-Trp-NH2) | Decomposition in DMSO ([2]; 10^-2 M in DMSO, after 24 hours at ambient temperature) | Stability when adsorbed onto Florisil ([2]; adsorbed onto Florisil, some decomposition during adsorption/desorption when DMSO is present) | Detection by HPLC after centrifugal evaporation and dissolution into DMSO ([2]; control experiment, no Florisil added) | Compound
4 | 7.70 mM | 7.65 mM | 5.11 mM | 5.53 mM |  |  | apparent low release | decomposes completely | stable | not possible to detect any Fmoc-Arg | N=C(N)NCCC[C@H](NC(=O)OCC1c2ccccc2-c2ccccc21)C(=O)O [Fmoc-Arg, Fmoc-Arginine]
5 | 10.04 mM | 10.31 mM | 11.93 mM | 10.51 mM |  |  |  |  |  |  | Cl.NC(=O)[C@@H](N)Cc1c[nH]c2ccccc12 [Trp-NH2.HCl, Tryptophan amide hydrochloride]

From patent publication US6626982B1, “Compound storage” (AstraZeneca AB, priority 1998, dated 2003)
